Reference: the supplement of paper PMC10627819

Columns and labels:
Experiment in all cases: fitness (endpoint OD595 vs no drug) (fraction); higher = more growth
S. aureus DSM 20231 = test system: S. aureus DSM 20231
How it was run: (§1)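 Plates with 384 wells were inoculated at OD595 0.01 using 30 µl of TSB, LB Lennox or CY, or 55 µl for S. pneumoniae. Incubation was at 37 °C, with OD595 measured every 30 min for 14 h. Fitness is the stationary-phase transition optical density over the robust mean of no-drug control wells, after first-reading background subtraction; it is capped at 1.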

S. aureus Newman = test system: S. aureus Newman
How it was run: as §1

S. pneumoniae D39V = test system: S. pneumoniae D39V
How it was run: as §1

CO[C@@]12[C@H](COC(N)=O)C3=C(C(=O)C(C)=C(N)C3=O)N1C[C@@H]1N[C@@H]12 [Mitomycin C] + C[n+]1ccc(-c2cc[n+](C)cc2)cc1 [Paraquat]
fitness
Details	first compound 0.001075 µg/mL	first compound 0.00215 µg/mL	first compound 0.0043 µg/mL	first compound 0.0156 µg/mL	first compound 0.0312 µg/mL	first compound 0.0625 µg/mL
S. aureus DSM 20231, partner 1.25 µg/mL	–	–	–	0.717	0.684	0.563
S. aureus DSM 20231, partner 2.5 µg/mL	–	–	–	0.691	0.678	0.577
S. aureus DSM 20231, partner 5 µg/mL	–	–	–	0.668	0.67	0.557
S. aureus Newman, partner 1.25 µg/mL	–	–	–	0.666	0.675	0.527
S. aureus Newman, partner 2.5 µg/mL	–	–	–	0.675	0.651	0.527
S. aureus Newman, partner 5 µg/mL	–	–	–	0.696	0.676	0.467
S. pneumoniae D39V, partner 1.5 µg/mL	0.955	0.94	0.862	–	–	–
S. pneumoniae D39V, partner 3 µg/mL	0.954	0.911	0.842	–	–	–
S. pneumoniae D39V, partner 6 µg/mL	0.961	0.919	0.783	–	–	–

fitness, S. pneumoniae D39V, one replicate
Details	first compound 0.002 µg/mL	first compound 0.004 µg/mL	first compound 0.008 µg/mL
partner 1.5 µg/mL	0.852	0.77	0.553
partner 3 µg/mL	0.862	0.781	0.592
partner 6 µg/mL	0.867	0.778	0.558

CO[C@@]12[C@H](COC(N)=O)C3=C(C(=O)C(C)=C(N)C3=O)N1C[C@@H]1N[C@@H]12 [Mitomycin C] + Cc1cc(NS(=O)(=O)c2ccc(N)cc2)no1 [Sulfamethoxazol]
fitness
Details	first compound 0.001075 µg/mL	first compound 0.00215 µg/mL	first compound 0.0043 µg/mL	first compound 0.0156 µg/mL	first compound 0.0312 µg/mL	first compound 0.0625 µg/mL
S. aureus DSM 20231, partner 1 µg/mL	–	–	–	0.703	0.664	0.534
S. aureus DSM 20231, partner 2 µg/mL	–	–	–	0.686	0.689	0.558
S. aureus DSM 20231, partner 4 µg/mL	–	–	–	0.721	0.684	0.547
S. aureus Newman, partner 1 µg/mL	–	–	–	0.779	0.66	0.546
S. aureus Newman, partner 2 µg/mL	–	–	–	0.777	0.698	0.559
S. aureus Newman, partner 4 µg/mL	–	–	–	0.73	0.622	0.516
S. pneumoniae D39V, partner 1 µg/mL	0.886	0.851	0.773	–	–	–
S. pneumoniae D39V, partner 2 µg/mL	0.894	0.873	0.779	–	–	–
S. pneumoniae D39V, partner 4 µg/mL	0.921	0.913	0.787	–	–	–

fitness, one replicate
Details	first compound 0.002 µg/mL	first compound 0.004 µg/mL	first compound 0.008 µg/mL	first compound 0.0156 µg/mL	first compound 0.0312 µg/mL	first compound 0.0625 µg/mL
S. aureus Newman, partner 8 µg/mL	–	–	–	0.993	0.823	0.658
S. pneumoniae D39V, partner 1 µg/mL	0.81	0.724	0.496	–	–	–
S. pneumoniae D39V, partner 2 µg/mL	0.727	0.686	0.459	–	–	–
S. pneumoniae D39V, partner 4 µg/mL	0.739	0.7	0.513	–	–	–
